Source: patent US11407768B2, “AMPK activators” (Kallyope, Inc., priority 2020, dated 2022)
pEC50: −log10 of the molar value.

What was measured:
[1] = system: Acute Dextran Sulfate Sodium (DSS) Colitis Model; experiment: Intestinal barrier function in mouse acute DSS colitis model (FITC-dextran); format: in vivo, C57B1/6 mice; conditions: 30 mg/kg QD oral; 3% DSS 7 days; serum FITC-dextran
Method: Compounds were formulated in vehicle (0.25% methyl cellulose, 5% Tween 80, 0.02% sodium dodecyl sulfate (SDS) in Hanks' Buffered Salt Solution with Ca^2+ and Mg^2+). Vehicle or compound was administered once daily by oral gavage to C57B1/6 mice. After 3 days of pre-dosing, dextran sulfate sodium (DSS) was simultaneously administered at 3% in drinking water, and appropriate water-only controls were included.
After 7 days of DSS administration, animals treated were switched back to their regular water source and administered a single oral bolus dose of FITC-dextran (FD) four hours prior to necropsy. The animals were sacrificed by cardiac puncture and serum was collected. The concentration of […] present in serum was determined by measuring fluorescence intensity on a standard plate reader, and fitting values back to a standard curve.

[2] = system: Chemotherapy-induced Intestinal Injury Model; experiment: Diarrhea in mouse chemotherapy-induced (5FU) intestinal injury model; format: in vivo, BALB/c mice; conditions: 5FU 400 mg/kg IP; for Diarrhea Score Day 5 / Diarrhea Score Day 6: score 0-3
Method: Compounds were formulated in vehicle (0.25% methyl cellulose, 5% Tween 80, 0.02% sodium dodecyl sulfate (SDS) in Hanks' Buffered Salt Solution with Ca' and Mg'). On day 1, either saline or a 400 mg/kg dose of 5-fluorouracil (5FU) in saline was administered by intraperitoneal injection to BALB/c mice. Starting on day 2, vehicle or compound was administered twice a day by oral gavage. From days 5 to 6 post-5FU, the animals were scored for diarrhea severity once a day. The diarrhea was scored 0-3 as follows: 0—normal consistency (black and solid), 1—soft (black and a bit lighter/yellow), 2—loosely shaped stool (yellowish and somewhat watery), 3—extreme diarrhea (very watery).

blood glucose levels = experiment: Intraperitoneal (IP) glucose tolerance test in mice; format: in vivo; conditions: for % Change in Average Total AUC (0-90 min) vs. Vehicle: blood glucose, glucose 2 g/kg IP
From the text: Systemic AMPK target engagement in vivo can be assessed by measuring the glucose levels in blood following administration of compounds, whereby AMPK activation in skeletal muscle leads in a decrease in overall blood glucose levels.
Compounds were formulated in vehicle (0.25% methyl cellulose, 5% Tween 80, 0.02% sodium dodecyl sulfate (SDS) in Hanks' Buffered Salt Solution with Ca^2+ and Mg^2). Immediately prior to compound dosing, the tip of the tail was removed with scissors and a drop of blood was collected onto a glucometer strip (Bayer Contour Next) for a −1 hour blood glucose measure. The mice were then immediately administered vehicle or compound at 10 mL/kg PO. Approximately one hour later, mice were tail bled for a 0 min blood glucose reading, and then immediately after were administered D(+) glucose (2 g/kg, made up in saline) at 5 mL/kg IP. Tail bleeds were then performed on all mice at 20 min, 40 min, 60 min, and 90 min post D(+) glucose administration for blood glucose measures. Area under the curves (AUCs) for blood glucose measures were then calculated for each treatment from 0-90 mins.

[3] = Pharmacokinetics (oral bioavailability) in C57BL/6 mice; conditions: mouse, in vivo; for bioavailability: IV 1 mg/kg, PO 30 mg/kg; for Vd: following IV administration, 1 mg/kg, read-out: volume of distribution
Method: Selected compounds were tested for pharmacokinetics in C57BL/6 mice. Compounds 1, 4, 31, 32, 40, 55, 57 and 60 were dosed IV at 1 mg/kg as a formulation of 0.2 mg/mL in 5% DMSO+30% PEG400+65% water and were dosed PO at 30 mg/kg as a formulation of 3 mg/mL in 0.25% MC+5% Tween 80+0.02% SDS. Compound 2 was dosed IV at 1 mg/kg as a formulation of 0.2 mg/mL in 5% ethanol +95% saline and was dosed PO at 30 mg/kg as a formulation of 3 mg/mL in 0.25% MC+5% Tween 80+0.02% SDS.

[4] = target: Recombinant AMPK α1/β1/γ1 complex (Homo sapiens (Human), UniProt Q13131+Q9Y478); experiment: In vitro pAMPK1 kinase activation assay (ADP-Glo, SAMS peptide); format: biochemical; conditions: AMPK α1/β1/γ1 pre-activated with CAMKK2; 12-point curve; 15 min compound incubation
How it was run: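 Activation read as ADP formation (ADP-Glo) from SAMS peptide phosphorylation, after a 15-minute compound pre-incubation with the complex pre-phosphorylated by CAMKK2. EC50 derived from 12-point curves interpolated against an ATP:ADP standard curve.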

in vitro = conditions: human; for Papp A→B at 2 h, 2 μM / Papp B→A at 2 h, 2 μM: Caco-2, pH 7.4
Method: (§1) Caco-2 cells purchased from ATCC were seeded onto […] (PET) in 96-well BD Insert plates at 1×10^5 cells/cm^2, and refreshed medium every 4-5 days until to the 21st to 28th day for confluent cell monolayer formation. The transport buffer in the study was HBSS with 10 mM HEPES at pH 7.40±0.05. Test compounds were tested at 2 μM bi-directionally in duplicate. Digoxin was tested at 10 μM bi-directionally in duplicate, while nadolol and metoprolol were tested at 2 μM in A to B direction in duplicate. Final DMSO concentration was adjusted to less than 1%.
(§2) The plate was incubated for 2 hours in CO2 incubator at 37±1° C., with 5% CO2 at saturated humidity without shaking. All samples were mixed with acetonitrile containing internal standard and were centrifuged at 4000 rpm for 10 min. Subsequently, 100 μL supernatant solution was diluted with 100 μL distilled water for LC/MS/MS analysis. Concentrations of test and control compounds in starting solution, donor solution, and receiver solution were quantified by LC/MS/MS, using peak area ratio of analyte/internal standard.

Caco-2 cells = experiment: in vitro; conditions: Caco-2
Method: as §1, §2

[5] = Caco-2, pH 7.4, Mean Recovery A to B
[6] = Caco-2, pH 7.4, Mean Recovery B to A

Sequence of Recombinant AMPK α1/β1/γ1 complex (Q13131 whole entry): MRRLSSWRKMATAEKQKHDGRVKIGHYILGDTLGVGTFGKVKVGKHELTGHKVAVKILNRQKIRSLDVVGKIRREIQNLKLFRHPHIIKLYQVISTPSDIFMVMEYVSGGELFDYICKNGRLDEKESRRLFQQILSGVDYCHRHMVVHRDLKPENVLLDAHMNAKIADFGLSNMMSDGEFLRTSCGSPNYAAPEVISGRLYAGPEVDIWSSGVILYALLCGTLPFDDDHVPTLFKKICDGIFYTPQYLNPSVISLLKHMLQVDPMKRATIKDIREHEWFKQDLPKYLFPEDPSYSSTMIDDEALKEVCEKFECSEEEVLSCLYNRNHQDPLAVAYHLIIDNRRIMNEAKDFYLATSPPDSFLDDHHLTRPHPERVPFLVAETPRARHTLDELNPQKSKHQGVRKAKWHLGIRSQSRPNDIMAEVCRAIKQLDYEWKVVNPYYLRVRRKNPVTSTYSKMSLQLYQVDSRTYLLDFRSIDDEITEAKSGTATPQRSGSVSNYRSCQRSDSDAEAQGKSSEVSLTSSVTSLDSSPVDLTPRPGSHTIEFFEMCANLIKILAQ
Sequence of Recombinant AMPK α1/β1/γ1 complex (Q9Y478 whole entry): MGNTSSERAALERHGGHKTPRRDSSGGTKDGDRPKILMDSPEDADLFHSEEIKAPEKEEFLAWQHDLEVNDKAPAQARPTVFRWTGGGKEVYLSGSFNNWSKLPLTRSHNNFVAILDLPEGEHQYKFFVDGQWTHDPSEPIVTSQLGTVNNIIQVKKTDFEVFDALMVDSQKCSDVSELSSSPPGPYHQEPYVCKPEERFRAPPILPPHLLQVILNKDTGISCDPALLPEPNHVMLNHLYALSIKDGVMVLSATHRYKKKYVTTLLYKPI
Sequence of Recombinant AMPK α1/β1/γ1 complex (P54619 whole entry partner): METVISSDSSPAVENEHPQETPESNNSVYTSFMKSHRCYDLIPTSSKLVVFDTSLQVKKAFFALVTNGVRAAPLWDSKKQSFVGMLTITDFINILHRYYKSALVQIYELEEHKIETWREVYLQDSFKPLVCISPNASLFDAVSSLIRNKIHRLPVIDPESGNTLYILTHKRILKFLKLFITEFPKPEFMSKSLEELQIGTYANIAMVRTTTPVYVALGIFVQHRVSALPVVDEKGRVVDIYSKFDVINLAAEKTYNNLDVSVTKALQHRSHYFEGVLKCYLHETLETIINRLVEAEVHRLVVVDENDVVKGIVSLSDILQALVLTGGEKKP

## OC[C@@H](O)[C@@H](O)[C@H](O)[C@@H](O)CNCc1ccc(-c2ccc(-c3nc4nc(O[C@@H]5CO[C@H]6[C@@H]5OC[C@H]6O)[nH]c4cc3Cl)cc2)cc1 [Compound 4, (2R,3R,4R,5S)-6-(((4′-(6-chloro-2-(((3R,3aR,6R,6aR)-6-hydroxyhexahydrofuro[3,2-b]furan-3-yl)oxy)-1H-imidazo[4,5-b]pyridin-5-yl)-[1,1′-biphenyl]-4-yl)methyl)amino)hexane-1,2,3,4,5-pentaol]
[1]
  Change in Fluorescence Intensity vs. Vehicle: −43%
[2]; 3 mpk BID oral
  Diarrhea Score Day 5, % Change vs. Vehicle: −16%
  Diarrhea Score Day 6, % Change vs. Vehicle: −44%
  Diarrhea Score Day 5: 0.75
  Diarrhea Score Day 6: 1.00
[2]; 10 mpk BID oral
  Diarrhea Score Day 5, % Change vs. Vehicle: −72%
  Diarrhea Score Day 6, % Change vs. Vehicle: −79%
  Diarrhea Score Day 5: 0.25
  Diarrhea Score Day 6: 0.38
Blood glucose levels; 30 mpk PO
  % Change in Average Total AUC (0-90 min) vs. Vehicle: −0.9%
Blood glucose levels; 30 mpk for all compounds, up to 100 mpk for Compound 4
  change in blood glucose AUC vs. vehicle / systemic AMPK activation (in words): do not lead to activation of AMPK in skeletal muscle
Blood glucose levels; 100 mpk PO
  % Change in Average Total AUC (0-90 min) vs. Vehicle: +2.3%
[3]
  half-life: 1.4 h
  bioavailability: < 1%
  Vd: < 1 L/kg
[4]
  pEC50: 10.00
In vitro
  Papp A→B at 2 h, 2 μM: < 0.48 ×10⁻⁶ cm/s
  Papp B→A at 2 h, 2 μM: 0.71 ×10⁻⁶ cm/s
In vitro; Caco-2, pH 7.4, Efflux Ratio
  efflux ratio at 2 h, 2 μM: > 1.48
In vitro; [5]
  recovery at 2 h, 2 μM: < 99.6%
In vitro; [6]
  recovery at 2 h, 2 μM: 102%
Caco-2 cells
  permeability (in words): low permeability

## O=C(NCCOCCO)c1ccc(-c2ccc(-c3cc4nc(O[C@@H]5CO[C@H]6[C@@H]5OC[C@H]6O)[nH]c4cc3Cl)cc2)cc1 [Compound 31, 4′-(6-chloro-2-(((3R,3aR,6R,6aR)-6-hydroxyhexahydrofuro[3,2-b]furan-3-yl)oxy)-1H-benzo[d]imidazol-5-yl)-N-(2-(2-hydroxyethoxy)ethyl)-[1,1′-biphenyl]-4-carboxamide]
[1]
  Change in Fluorescence Intensity vs. Vehicle: −41%
[2]; 30 mpk BID oral
  Diarrhea Score Day 5, % Change vs. Vehicle: −67%
  Diarrhea Score Day 6, % Change vs. Vehicle: −61%
  Diarrhea Score Day 5: 0.43
  Diarrhea Score Day 6: 0.63
[3]
  half-life: 1.7 h
  bioavailability: < 10%
  Vd: < 5 L/kg
[4]
  pEC50: 9.07
In vitro
  Papp A→B at 2 h, 2 μM: 0.115 ×10⁻⁶ cm/s
  Papp B→A at 2 h, 2 μM: 31.7 ×10⁻⁶ cm/s
In vitro; [5]
  recovery at 2 h, 2 μM: 83.2%
In vitro; [6]
  recovery at 2 h, 2 μM: 97.8%
Caco-2 cells
  permeability (in words): low permeability
